Data published in patent US6613738B1, “Cyclic lipopeptide from Cryptosporiopsis quercina possessing antifungal activity” (HMV Corporation, priority 1998, dated 2003).
Numbered stars: 1 amine (or outer) side, 2 acyl side, 3 side chain; on linkers, the order of the positions; unused ones are H or OH. Bridge positions count the residues as written; N and C are the ends. Square brackets hold non-standard residues; d marks the D form. Peptide text beside a SMILES is read from it. * marks the point of attachment. ξ: configuration not given here. ξOrn(4,5-diOH) = O=C(C(CC(O)C(O)N[*:3])N[*:1])[*:2]; ξhTyr(βξ-OH,γξ-OH) = NC(C(=O)O)C(O)C(O)c1ccc(O)cc1; X1 = O=C(C1C(O)C(CO)CN1[*:1])[*:2]; Palmitoyl = CCCCCCCCCCCCCCCC(=O)*; Hyp = O=C(O)[CH]1C[CH](O)CN1

Tests used:
[1] = tested on: Candida albicans; experiment: MIC, microbroth dilution assay (NCCLS); format: cell-based
[2] = tested on: Cryptococcus neoformans; experiment: MIC, microbroth dilution assay (NCCLS); format: cell-based
[3] = tested on: Aspergillus fumigatus; experiment: MIC, microbroth dilution assay (NCCLS); format: cell-based
[4] = tested on: Candida parasilopsis; experiment: MIC, microbroth dilution assay (NCCLS); format: cell-based
[5] = tested on: Histoplasma capsulatum; format: cell-based
[6] = tested on: nail and skin infections; experiment: Nail and skin infections with human volunteers; format: in vivo

Compound	Minimum Inhibitory Concentration [1]	Minimum Inhibitory Concentration [2]	effect on fungus (in words) [2]	Minimum Inhibitory Concentration [3]	effect on fungus (in words) [3]	Minimum Inhibitory Concentration [4]	Minimum Inhibitory Concentration [5]	results on nail and skin infections [6]
CCCCCCCCCCCCCCCC(=O)NC1CC(O)C(O)NC(=O)C2C(O)C(CO)CN2C(=O)C(CCC(N)=O)NC(=O)C(C(O)C(O)c2ccc(O)cc2)NC(=O)C2CC(O)CN2C(=O)C(C(C)O)NC1=O (stereo not drawn) [Cryptocandin] (Palmitoyl-[ξOrn(4,5-diOH)]T[Hyp][ξhTyr(βξ-OH,γξ-OH)]Q[X1]; lactam 1-C; configuration not given here)	0.03 µg/mL	>20 µg/mL	little effect	>20 µg/mL	little effect	2.5 µg/mL	0.01 µg/mL	promising results
Echinocandin B [reference compound]	0.3 µg/mL	>20 µg/mL	–	>20 µg/mL	–	–	–	–
C[C@@H]1[C@H](O)[C@@H](C)/C=C/C=C/C=C/C=C/C=C/C=C/C=C/[C@H](O[C@@H]2O[C@H](C)[C@@H](O)[C@H](N)[C@@H]2O)C[C@@H]2O[C@](O)(C[C@@H](O)C[C@@H](O)[C@H](O)CC[C@@H](O)C[C@@H](O)CC(=O)O[C@H]1C)C[C@H](O)[C@H]2C(=O)O [Amphotericin B, reference compound]	0.04 µg/mL	0.04 µg/mL	–	0.03 µg/mL	–	0.01 µg/mL	0.01 µg/mL	–
